Literature values in patent US20200253951A1, “COMBINATION OF AN […] AGENT WITH […]/OR DO[…] FOR USE IN PREVENTING/STOPPING OF AXIAL MYOPIA IN HUMAN” (priority 2016, published 2020).

How the values were obtained:
[1] = system: axial myopia; conditions: one drop of 1% Atropine collirium at bedtime, chinese children, placebo controlled
[2] = system: conjunctiva; conditions: pediatric population, atropine 0,1%, 0,05% and 0,01%

## CN1[C@@H]2CC[C@H]1C[C@@H](OC(=O)C(CO)c1ccccc1)C2 (some centres unmarked) [Atropine]
[1]
  subjects in whom development of axial myopia was halted (stopping the elongation of the bulb): 90%
[2]
  subjects who developed ocular redness and itching: around 5%
